Read-outs that look alike come from different tables or passages of the source. Ends that are not written are not given here.
Assays:
bEnd.3 cell monolayers = test system: bEnd.3 cell monolayers
Method: Figure 4 PPCs translocation across a bEnd.3 in vitro BBB model. (A) bEnd.3 in vitro BBB model transwell system. The insert, or apex, corresponds to the blood side, while the base (bottom chamber) corresponds to the brain side. (B) After formation of a monolayer, 10 μM of each conjugate was added to the apical side of the tissue culture inserts. After incubation for 24 h, samples from the basolateral side were collected, and the percentage of translocation of each conjugate (black) was calculated. FD4 permeability (gray) was measured to determine monolayer integrity post-PPCs translocation.
After 24 h incubation with conjugates, an in vitro integrity assay was performed.[19] Briefly, cells were washed twice with PBS and once with DMEM medium without phenol red. Then, previously diluted 4 kDa fluorescein isothiocyanate-dextran (FD4) (Sigma-Aldrich, Spain) in DMEM without phenol red to an absorbance of 0.1 was added to the apical side and incubated for 2 h. Samples were collected from the apical and basolateral side, and fluorescence intensity was measured with λext = 493 nm and λem = 520 nm, using a Varioskan Lux plate reader. The integrity of the barrier was determined as follows: [drawing 2] 2 where Fi is the recovered fluorescence intensity, Fcells is the recovered fluorescence intensity from cells without FD4 incubation, FFD4 is the fluorescence intensity of total FD4 initially added to the transwell apical side, and FMedium is the fluorescence intensity of DMEM medium without phenol red.

HIV-1NL4-3 = assay: In vitro inhibition of HIV-1NL4-3 infection of TZM-bl cells (luciferase reporter); format: cell-based; conditions: for IC50: TZM-bl cells; for HIV inhibition (in words): in vitro, absence of photoactivation
Method: Viral supernatants harvested from pNL4-3-transfected HEK293T cells were titered through the Reed-Muench method[56] based on HIV-1NL4–3 infectivity against TZM-bl cell cultures. TZM-bl cells were seeded at 2 × 10^4 cells/well in tissue culture-treated 96-well microplates from Corning (Corning, NY, USA), and incubated for 24 h. Cells were then incubated with 2-fold serial dilutions of viral supernatants for 3 h, after which the supernatant was replaced with fresh complete medium. After 45 h, TZM-bl cell infection was quantified through luciferase reporter-gene expression levels, under the control of an HIV-1 TAT-dependent LTR promoter[57] using the Luc-Screen luciferase chemiluminescence detection system. Luminescence was measured in an Infinite M200 microplate reader from Tecan (Männedorf, Switzerland). […] Titration was performed with at least four replicates to allow accurate estimation of TCID50 in viral supernatants.
The inhibitory activity of conjugates on HIV-1NL4–3 entry into TZM-bl cells was evaluated as previously described.[58] TZM-bl cells were seeded at 2 × 10^4 cells/well in tissue culture-treated 96-well microplates and incubated for 24 h. HIV-1NL4–3 viral supernatants (100 or 10 TCID50/well) were then incubated for 1 h with 2-fold serial dilutions of either nonconjugated peptide and porphyrins or conjugates, after which the infection mixture was added to TZM-bl cells. Untreated cells (in the absence of peptide–porphyrin conjugate) were used as control. Virions were incubated with cells for 3 h, after which cells were washed to remove unbound virions and new medium was added. After 45 h, infection was quantified by the Luc-Screen chemiluminescence assay. Measurements were performed in an Infinite M200 microplate reader. […] At least three independent experiments were performed for each assay.

human erythrocytes = assay: Hemolysis assay; format: cell-based
Method: Plates were incubated for 1 h at 37 °C with 100 rpm stirring, then centrifuged for 5 min at 4000 rpm, 4 °C, and supernatants were transferred to a 96-well flat-bottom polystyrene plate (Corning). Hemolysis was assessed by hemoglobin (Hb) release, measured by absorbance at 415 nm in a Varioskan LUXTM microplate reader (Thermo Fisher Scientific, Inc.). As porphyrin and Hb spectra are partially overlapping, to exclude porphyrin interference in Hb quantification a blank reading of each PPC (no hRBCs, TN buffer +1% DMSO) was subtracted from each measurement. TN buffer (+1% DMSO, no conjugate) and hRBCs with 1% Triton X-100 were used as negative and positive controls, respectively. Hemolysis (%) was determined using the following equation: [drawing 6] 6 where Abstreated is the absorbance of hRBC treated with the conjugates, Absconjugate is the absorbance from each conjugate concentration without hRBCs, AbsTriton is the absorbance of Triton X-100 treated hRBCs, and Absbuffer is the absorbance of TN buffer alone. HC50 values were determined by GraphPad Prism 8 software using a log(inhibitor) vs normalized response (variable slope). Experiments were performed using 3 different blood donors.

[1] = 10 TCDI50 per well (approximate physiological conditions of HIV brain infection), read-out: IC50 HIV inhibition, 10 TCDI50
[2] = 100 TCDI50 per well, no-light, read-out: IC50 HIV inhibition, 100 TCDI50

| Substance | % Base (RFI), FD4 Permeability (monolayer integrity post-translocation) (bEnd.3 cell monolayers) | IC50 (HIV-1NL4-3; [1]) | IC50 (HIV-1NL4-3; [2]) | HIV inhibition (in words) (HIV-1NL4-3) | Hemolytic activity (in words) (human erythrocytes) |
| --- | --- | --- | --- | --- | --- |
| P4-MP: mesoporphyrin IX coupled to the C-terminal Lys side chain of peptide P4 (AGILKRWK-amide) (AGILKRWK(mesoporphyrin IX)-NH2) | 15.3% | 5.77 ± 1.17 µM | 34 ± 1.25 µM | inhibit HIV in vitro | totally lacked hemolytic activity |
| MP-P5: mesoporphyrin IX coupled to the N-terminal amino group of peptide P5 (SGTQEEY-amide) ({mesoporphyrin IX}-SGTQEEY-NH2) | 9.4% | 10 ± 2.9 µM | 33.1 ± 1.38 µM | inhibit HIV in vitro | totally lacked hemolytic activity |
